Test systems include A498 renal; ACHN renal; CAKI-1 renal; DU-145 prostate; HCT-15 colon; HS 578T breast; IGROV1 ovarian; K-562 leukemia; MDA-MB-435; MDA-N; NCI-H23 lung; NCI-H522 lung; NCI/ADR-RES ovarian; OVCAR-3 ovarian; PC-3 prostate; SK-MEL-2 melanoma; SK-MEL-5 melanoma; SR leukemia; SW-620 colon; UACC-62 melanoma.
Common to all, as to test: growth of human tumour cells (NCI), 48 h

From PubChem BioAssay (NCI) come the findings set out here.

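1) Cells in 96-well plates. 2) Compound, 48 h, 5 concentrations. 3) Linear interpolation between surrounding doses. 4) Unreached endpoint = highest concentration. TGI: concentration producing complete growth inhibition.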 A value given as a limit tells only on which side of the number the result lay.

In the case of `CC(C)(C)N1C(=O)c2ccccc2C1(O)C(F)(F)F` (stereo not given), the TGI was > 100 µM in the experiment on A498 renal; > 100 µM with ACHN renal; > 100 µM in the experiment on CAKI-1 renal; > 100 µM in the experiment on DU-145 prostate; > 100 µM in the experiment on HCT-15 colon; 97.8 µM with HS 578T breast. Moreover, the TGI in the experiment on IGROV1 ovarian, in the experiment with K-562 leukemia, in the experiment with MDA-MB-435, in the experiment with MDA-N, with NCI-H23 lung and with NCI-H522 lung was > 100 µM in each case. In addition, the TGI in the experiment on NCI/ADR-RES ovarian, with OVCAR-3 ovarian, with PC-3 prostate, in the experiment with SK-MEL-2 melanoma, with SK-MEL-5 melanoma and with SR leukemia was > 100 µM throughout. For the same compound, the TGI in the experiment on SW-620 colon and with UACC-62 melanoma was > 100 µM each time.

`O=C1C=CC(=O)c2c1cc([N+](=O)[O-])c1ccoc21`: the TGI in the experiment with A498 renal is 30 µM; with ACHN renal it was 3.4 µM; in the experiment with CAKI-1 renal, 3.54 µM; in the experiment on DU-145 prostate, > 58.6 µM; in the experiment on HCT-15 colon, 58.5 µM; with HS 578T breast, > 60.1 µM. Moreover, the TGI was 51.9 µM with IGROV1 ovarian; > 100 µM with K-562 leukemia; 26.2 µM with MDA-MB-435; 35.4 µM in the experiment on MDA-N; 46.2 µM in the experiment on NCI-H23 lung; 4.4 µM in the experiment with NCI-H522 lung. Further, the TGI in the experiment with NCI/ADR-RES ovarian is > 70.8 µM; in the experiment on OVCAR-3 ovarian it was 70.2 µM; in the experiment with PC-3 prostate, 30.7 µM; in the experiment with SK-MEL-2 melanoma, 35.9 µM; with SK-MEL-5 melanoma, 31.3 µM; with SR leukemia, > 100 µM. The TGI with SW-620 colon is > 100 µM; with UACC-62 melanoma it was 29.4 µM.

For `O=C(NO)c1ccc(OCc2cccc(Cl)c2)cc1`, the TGI in the experiment with A498 renal was 20 µM; in the experiment on ACHN renal, 25 µM; in the experiment with CAKI-1 renal, 37.5 µM; with DU-145 prostate, > 47.3 µM; in the experiment on HCT-15 colon, 29.9 µM; in the experiment on HS 578T breast it was > 96 µM. In addition, the TGI with IGROV1 ovarian is 23.3 µM; with K-562 leukemia it was > 31.6 µM; in the experiment on MDA-MB-435, 44 µM; in the experiment with MDA-N, 35.4 µM; in the experiment on NCI-H23 lung, 20.9 µM; with NCI-H522 lung it was 19.2 µM. The TGI in the experiment with NCI/ADR-RES ovarian was > 29.8 µM; with OVCAR-3 ovarian it was > 64.1 µM; in the experiment with PC-3 prostate it was > 44.1 µM; with SK-MEL-2 melanoma, 70.4 µM; in the experiment with SK-MEL-5 melanoma, > 100 µM; with SR leukemia, > 28.5 µM. Moreover, the figures for the TGI with SW-620 colon and in the experiment with UACC-62 melanoma were > 100 µM and 21.7 µM, respectively.

Regarding `Cc1ccc2c3c(cnc2n1)C(=O)OCCN3C`, the TGI in the experiment on A498 renal, in the experiment on ACHN renal, in the experiment on CAKI-1 renal, with DU-145 prostate, in the experiment on HCT-15 colon and in the experiment with HS 578T breast was > 100 µM throughout. For the same compound, the TGI in the experiment on IGROV1 ovarian, with K-562 leukemia, with MDA-MB-435, with MDA-N, in the experiment on NCI-H23 lung and in the experiment with NCI-H522 lung was > 100 µM throughout. Also, the TGI in the experiment with NCI/ADR-RES ovarian, with OVCAR-3 ovarian, with PC-3 prostate, with SK-MEL-2 melanoma, with SK-MEL-5 melanoma and in the experiment with SR leukemia was > 100 µM each time. The TGI in the experiment on SW-620 colon and with UACC-62 melanoma was > 100 µM in each case.

Consider `CCCCCN1CCN(c2ncccn2)CC1`, for which the TGI with A498 renal, in the experiment with ACHN renal, with CAKI-1 renal, with DU-145 prostate, with HCT-15 colon and with HS 578T breast was > 100 µM throughout. For the same compound, the TGI in the experiment with IGROV1 ovarian, with K-562 leukemia, in the experiment on MDA-MB-435, in the experiment with MDA-N, in the experiment with NCI-H23 lung and in the experiment on NCI-H522 lung was > 100 µM each time. Also, the TGI in the experiment with NCI/ADR-RES ovarian, in the experiment with OVCAR-3 ovarian, with PC-3 prostate, in the experiment on SK-MEL-2 melanoma, in the experiment on SK-MEL-5 melanoma and with SR leukemia was > 100 µM in each case. Moreover, the TGI in the experiment on SW-620 colon and in the experiment with UACC-62 melanoma was > 100 µM throughout.

`O=C(/C=C/c1ccc(O)c(O)c1)OCc1ccccc1`: the TGI in the experiment on A498 renal was 50.5 µM; in the experiment on ACHN renal, 40.7 µM; in the experiment with CAKI-1 renal, 67.3 µM; in the experiment on DU-145 prostate it was 39.5 µM; with HCT-15 colon it was > 100 µM; with HS 578T breast it was > 100 µM. Moreover, the TGI in the experiment with IGROV1 ovarian was 13.5 µM; with K-562 leukemia, 61 µM; with MDA-MB-435, 97.3 µM; with MDA-N, > 100 µM; in the experiment on NCI-H23 lung it was 60.3 µM; in the experiment with NCI-H522 lung, 7.77 µM. Moreover, the TGI was 72.2 µM with NCI/ADR-RES ovarian; > 100 µM in the experiment on OVCAR-3 ovarian; 85.1 µM with PC-3 prostate; 82 µM in the experiment on SK-MEL-2 melanoma; 24.3 µM with SK-MEL-5 melanoma; 19.7 µM with SR leukemia. In addition, the results for the TGI in the experiment on SW-620 colon and with UACC-62 melanoma were > 100 µM and 53.9 µM, respectively.

With `CCN1CCN(c2nc3ccccc3nc2C(=O)c2ccc(OC)cc2)CC1`, the TGI with A498 renal, with ACHN renal, with CAKI-1 renal, in the experiment with DU-145 prostate, in the experiment with HCT-15 colon and in the experiment on HS 578T breast was > 100 µM in each case. For the same compound, the TGI with IGROV1 ovarian, in the experiment on K-562 leukemia, in the experiment on MDA-MB-435, with MDA-N, in the experiment on NCI-H23 lung and with NCI-H522 lung was > 100 µM in each case. The TGI in the experiment with NCI/ADR-RES ovarian was > 100 µM; in the experiment with OVCAR-3 ovarian, > 100 µM; in the experiment on PC-3 prostate it was > 100 µM; in the experiment on SK-MEL-2 melanoma, > 100 µM; in the experiment with SK-MEL-5 melanoma, > 100 µM; in the experiment on SR leukemia, 93.4 µM. Further, the TGI with SW-620 colon was > 100 µM; with UACC-62 melanoma it was 45 µM.

As to `NC(=O)NC(=O)CCC(NS(=O)(=O)c1ccccc1)C(=O)NC(N)=O` (stereo not given), the TGI in the experiment on A498 renal, in the experiment on ACHN renal, in the experiment with CAKI-1 renal, in the experiment with DU-145 prostate, with HCT-15 colon and in the experiment with HS 578T breast was > 100 µM each time. Also, the TGI in the experiment on IGROV1 ovarian, in the experiment with K-562 leukemia, with MDA-MB-435, in the experiment on MDA-N, in the experiment on NCI-H23 lung and in the experiment on NCI-H522 lung was > 100 µM each time. For the same compound, the TGI in the experiment on NCI/ADR-RES ovarian, in the experiment with OVCAR-3 ovarian, in the experiment with PC-3 prostate, with SK-MEL-2 melanoma, in the experiment on SK-MEL-5 melanoma and in the experiment with SR leukemia was > 100 µM in each case. Moreover, the TGI with SW-620 colon and in the experiment with UACC-62 melanoma was > 100 µM each time.

Regarding `O=Nc1c(-c2c(O)[nH]c3ccccc23)[nH]c2ccccc12`, the TGI is 13.9 µM with A498 renal; > 32.1 µM in the experiment with ACHN renal; 41 µM in the experiment on CAKI-1 renal; 31 µM with DU-145 prostate; > 87.5 µM in the experiment on HCT-15 colon; > 29.1 µM in the experiment with HS 578T breast. The TGI in the experiment with IGROV1 ovarian was 22 µM; in the experiment with K-562 leukemia it was > 100 µM; in the experiment on MDA-MB-435, > 39.7 µM; with MDA-N it was > 47.4 µM; in the experiment with NCI-H23 lung, > 44.6 µM; in the experiment on NCI-H522 lung, 20.9 µM. Moreover, the TGI in the experiment on NCI/ADR-RES ovarian was > 100 µM; in the experiment on OVCAR-3 ovarian it was > 89.7 µM; in the experiment with PC-3 prostate it was 28.1 µM; with SK-MEL-2 melanoma, 7.62 µM; in the experiment on SK-MEL-5 melanoma, 26.4 µM; with SR leukemia, > 100 µM. Also, the TGI in the experiment on SW-620 colon was > 100 µM; with UACC-62 melanoma it was 11.1 µM.

With `Nc1ccc(Oc2ccc(C3(c4ccc(Oc5ccc(N)cc5)cc4)C4CC5C6CC7CC5C3C(C7)C6C4)cc2)cc1`, the TGI with A498 renal is 18.9 µM; in the experiment with ACHN renal it was > 100 µM; in the experiment with CAKI-1 renal, > 100 µM; in the experiment on DU-145 prostate it was > 100 µM; in the experiment with HCT-15 colon it was > 100 µM; with HS 578T breast it was > 100 µM. The TGI in the experiment on IGROV1 ovarian is > 100 µM; in the experiment on K-562 leukemia, > 100 µM; in the experiment with MDA-MB-435 it was 82.9 µM; in the experiment on MDA-N it was > 100 µM; in the experiment on NCI-H23 lung it was > 95.3 µM; in the experiment on NCI-H522 lung it was > 100 µM. Also, the TGI with NCI/ADR-RES ovarian, with OVCAR-3 ovarian, with PC-3 prostate, in the experiment with SK-MEL-2 melanoma, in the experiment on SK-MEL-5 melanoma and in the experiment with SR leukemia was > 100 µM each time. Moreover, the TGI with SW-620 colon and in the experiment with UACC-62 melanoma was > 100 µM throughout.

Consider `O=C1OC2C(O)COC2(O)C1(O)C(C[N+](=O)[O-])c1ccc(Cl)cc1` (stereo not given), for which the TGI with A498 renal is 12.3 µM; in the experiment with ACHN renal it was 26.7 µM; in the experiment on CAKI-1 renal it was 30.1 µM; in the experiment with DU-145 prostate, 34.2 µM; with HCT-15 colon, 16.7 µM; in the experiment on HS 578T breast, > 52.9 µM. Further, the TGI in the experiment on IGROV1 ovarian was 21.9 µM; in the experiment with K-562 leukemia, 22.4 µM; with MDA-MB-435, 4.59 µM; with MDA-N, 6.98 µM; in the experiment with NCI-H23 lung, 18.6 µM; in the experiment on NCI-H522 lung, 23.7 µM. The TGI in the experiment on NCI/ADR-RES ovarian was found to be 72 µM; in the experiment on OVCAR-3 ovarian, 21.5 µM; with PC-3 prostate it was 34.3 µM; with SK-MEL-2 melanoma it was 35.8 µM; in the experiment with SK-MEL-5 melanoma, 21.6 µM; in the experiment with SR leukemia it was 19.6 µM. Besides, the TGI in the experiment with SW-620 colon came to 14.1 µM; with UACC-62 melanoma it was 22.8 µM.
